How the values were obtained:
comédons = test system: comédons; design: species or system souris femelles atrichis «rhinocéros»; conditions: in vivo
PI[…] = assay type: cell-based, Pityrosporum ovale

| Structure (SMILES) | D (grand diamètre) (comédons) | Rapport d/D (comédons) | d (diamètre de l'orifice) (comédons) | C.M.I. (PI[…]) [µg/mL] |
| --- | --- | --- | --- | --- |
| O=C(OOC(=O)c1ccccc1)c1ccccc1 [Peroxyde de benzoyle, peroxyde de benzoyle, reference compound] | 27,0±1,8 unités arbitraires | 0,54 | 14,7±2,1 unités arbitraires | – |
| O=C(OOC(=O)c1cccs1)c1cccs1 [Peroxyde de thénoyle, peroxyde de thénoyle] | 23,5±1,6 unités arbitraires | 0,90 | 21,1±1,7 unités arbitraires | 250 |
